Two substances from patent publication US8080522B2, “Polyethlene glycol modifications of thymosin alpha-1” (Institute of Pharmacology and Toxicology Academy of …, priority 2005, dated 2011) can be followed below.

Series [1] deals with spleen cell. The experiment in a line: Interferon-γ production of spleen cells stimulated by Con A (double antibody sandwich ELISA). The note with it: for Concentration of IFN-γ: Con A 0.5 μg/mL, 24 hours, n = 3; for Enhancement percentage: versus Con A alone. It is filed as cell-based. Here is the method:
Prepare spleen cell suspension in sterile condition. Adjust cell concentration to 5×10^6 cell/mL by adding RPMI-1640 culture with 20% bovine serum. Add 0.5 mL cell suspension, 0.25 mL Con A (final concentration is 0.5 μg/mL) and 0.25 mL samples with different concentrations in 24-well plate; and add RPMI-1640 culture in control wells. Incubate the plates in a 5% CO2 chamber at 37° C. for 24 hours. Centrifuge and collect supernatant, test the content of IFN-γ in supernatant by double antibody sandwich ELISA. The protocol is according to the instruction on ELISA kit.

A short description of series [2]: Plasma concentration / pharmacokinetics in mouse (competitive ELISA). It is filed as in vivo. The note with it: 300 μg per mouse, injected peritoneally, parameters in 24 h; for AUC: n = 3; for Cmax / Tmax: serum, ip, 300 ug/animal; for Cmax: n = 3, read-out: Cmax; for Tmax: n = 3, read-out: Tmax. Here is the method: Coating antigen: Dilute Tα1 detection antigen stock solution to a final concentration of 2 μg/mL with coating solution, and add it into the wells of ELISA plate for 0.1 mL per well, and incubate at 4° C. for 5 days. Then wash the ELISA plate 3 times with washing buffer, each 0.2 mL/well and 3 min/time. Add 0.2 mL blocking buffer to each well, incubate for 1.5 hours at 37° C., wash plate 2 times by washing buffer, and spin dried.
Sample preparation: Weight sample accurately, dissolve it in saline to a concentration of 1.5 mg/mL. Administrate 0.2 Ml by injection to each mouse peritoneally. Collect blood sample in 3 min, 20 min, 40 min, 1 h, 2 h, 3 h, 6 h, 8 h, 12 h, and 24 h. Collect serum by centrifuge the blood samples for 5 minutes at 10000 rpm, stored at −20° C. in a freezer. o prepare test sample, […] was added by 0.1 mL 1:1500 rabbit anti-Tα1 serum (final concentration is 1:6000), and 0.2 mL CD-1® mouse serum, and […]. Prepare blank control at the same time. Total volume is 0.4 mL. Incubate for 2 hours at 37° C. To prepare standard sample, Tα1 0.1 mL with different concentrations from 0.0004 to 400 μg/mL was added by 0.1 mL 1:1500 rabbit anti-Tα1 serum (final concentration is 1:6000), and 0.2 mL CD-1® mouse serum. Prepare blank control at the same time. Total volume is 0.4 mL. Incubate for 2 hours at 37° C.
Sample Testing Add the prepared test sample and standard sample to ELISA plate, 0.1 mL/well, reacting for 1 hour in 37° C. chamber. Wash the plates 3 times, spin dryed. Add substrate 0.1 mL/well for 10 minutes. Add 2 mol/L H2SO4 0.05 mL to each well to terminate the reaction. Measure the OD value at 450 nm. Plot the standard curve with the concentration of Tα1 standard sample as abscissa and OD value as vertical coordinate. Calculate the content of test sample according to this standard curve.
A general note: In an ELISA, binding on a coated surface is turned into a signal by an enzyme label.

Series [3] is described as follows: Half-life in liver homogenate (HPLC). Format: in vitro ADME. The note with it: 37° C., sample 0.4 mg/mL or 0.8 mg/mL, read-out: t1/2 in liver homogenate (converted). As for the experimental part: Experimental method: Prepare 0.4 mg/mL or 0.8 mg/mL sample aqueous solution in centrifuge tube, adding 50 μL liver homogenate. Then incubate for different time in 37° C. water bath. Terminate the reaction and precipitate liver homogenate protein by heating the mixture in boiling water for 5 minutes. Centrifuge it (10000 rpm) for 10 minutes. Analyze the supernatant by HPLC. The data was statistically analyzed by Origin Prof. 5.0.
HPLC: Column temperature: 25° C.; Flow rate 1.0 mL/min; Detection wavelength: 200 nm; Mobile phase A: 0.1% TFA/H2O; Mobile phase B: 0.1% TFA/70% CH3CN.

Series [4] has as its system T lymphocyte (spleen cell). In words: T lymphocyte proliferation stimulated by Con A (3H-TdR incorporation). It is filed as cell-based, mouse. The note with it: for 3H-TdR incorporation (cpm, x ± SD): Con A 0.5 μg/mL, 72 hours, n = 4; for Enhancement percentage: versus Con A alone. Here is the method:
Sacrifice mouse by draining artery blood, remove spleen in sterile condition, and make it to spleen cell suspension. After red blood cell lysis, wash for 3 times, and stain with Trypan Blue to count the living cells. The amount of living cells should be more than 95%. Dilute the cell concentration to 5×10^6 cell/mL by adding RPMI-1640 culture with 10% bovine serum. Add spleen cell suspension to a sterilized 96-well plate for 100 μL per well. The total amount is 200 μL per well (including 50 μL Con A and 50 μL medicament). Each sample concentration is repeated fro 3-4 wells. Incubate the plate in a 5% CO2 chamber for 72 hours, add 10 μci/mL ^3H-TdR 20 μL per well 16 hours before termination of the incubation, giving rise to a final concentration of 1.0 μci (37.0 KBq)/mL. Collect cells on filter membrane by using Herveste 96 cell harvester, dried in 80° C. oven for 20 minutes or dried in air. Put the dried filter membrane into 1450-423 microBeta sample bag, add scintillation liquid, and measure radioactivity (cpm) in Perkin Elmer MicroBeta Trilux 1450 Scintillation Counter.

Usually AUC stands for concentration integrated over time. Broadly, the Cmax is the maximum level reached in the sampled fluid or tissue. What is called Tmax is the time at which the peak concentration occurs. Take “Ac-SDAAVDTSSEITTKDLKEKKEVVEEAEN-OH [Tα1, reference compound]”: the “Concentration of IFN-γ” value in series [1] (Table 1-1, sample 1 μg/mL) was found to be 1449.3 ± 334.3 pg/mL; in series [1] (Table 1-1, sample 10 μg/mL), 1514.0 ± 102.1 pg/mL; in series [1] (Table 1-1, sample 100 μg/mL) it was 1007.2 ± 31.3 pg/mL; in series [1] (Table 1-3, sample 1 μg/mL) it was 3609.6 ± 167.8 pg/mL; in series [1] (Table 1-3, sample 10 μg/mL), 3891.5 ± 106.1 pg/mL; in series [1] (Table 1-3, sample 100 μg/mL), 4361.3 ± 87.8 pg/mL. In addition, the “Enhancement percentage” value in series [1] (Table 1-1, sample 1 μg/mL) was “+92.8%”; in series [1] (Table 1-1, sample 10 μg/mL), “+101.4%”; in series [1] (Table 1-1, sample 100 μg/mL) it was “+34.0%”; in series [1] (Table 1-3, sample 1 μg/mL), “+18.2%”; in series [1] (Table 1-3, sample 10 μg/mL), “+27.4%”; in series [1] (Table 1-3, sample 100 μg/mL), “+42.8%”. Also, the Enhancement percentage entry was “+32.5%” in series [4] (Table 2-1, sample 10 μg/mL); “+26.1%” in series [4] (Table 2-1, sample 50 μg/mL); “+6.6%” in series [4] (Table 2-1, sample 100 μg/mL); “+57.3%” in series [4] (Table 2-2, sample 10 μg/mL); “+46.1%” in series [4] (Table 2-2, sample 50 μg/mL); “+23.5%” in series [4] (Table 2-2, sample 100 μg/mL). Further, the AUC in series [2] came to 9220 ng·h/mL. Also, the Cmax in series [2] was determined as 10100 ng/mL. Further, in series [2], the Tmax amounted to 20 min. Besides, the half-life in series [3] is 252 min. The “3H-TdR incorporation (cpm, x ± SD)” value in series [4] (Table 2-1, sample 10 μg/mL) is given as 17871 ± 4635 cpm; in series [4] (Table 2-1, sample 50 μg/mL), 17007 ± 1526 cpm; in series [4] (Table 2-1, sample 100 μg/mL) it was 14624 ± 3253 cpm; in series [4] (Table 2-2, sample 10 μg/mL) it was 18315 ± 2194 cpm; in series [4] (Table 2-2, sample 50 μg/mL) it was 17007 ± 1526 cpm; in series [4] (Table 2-2, sample 100 μg/mL), 14383 ± 3225 cpm.

“Ac-SDAAVDTSSEITTKDLKEKKEVVEEAENC-NH2 [BMJBT009]”: the “Concentration of IFN-γ” value was 1895.7 ± 49.8 pg/mL in series [1] (Table 1-1, sample 1 μg/mL); 1814.5 ± 105.5 pg/mL in series [1] (Table 1-1, sample 10 μg/mL); 672.1 ± 94.3 pg/mL in series [1] (Table 1-1, sample 100 μg/mL). For the same substance, the “Enhancement percentage” value was “+152.2%” in series [1] (Table 1-1, sample 1 μg/mL); “+141.4%” in series [1] (Table 1-1, sample 10 μg/mL); −11.0% in series [1] (Table 1-1, sample 100 μg/mL); “+84.5%” in series [4] (Table 2-1, sample 10 μg/mL); “+46.6%” in series [4] (Table 2-1, sample 50 μg/mL); “+56.6%” in series [4] (Table 2-1, sample 100 μg/mL). The substance further yielded an AUC in series [2] of 2120 ng·h/mL. Further, the Cmax in series [2] worked out at 443 ng/mL. Also, the Tmax in series [2] was found to be 60 min. Besides, in series [3], the half-life is 24 min. Besides, the “3H-TdR incorporation (cpm, x ± SD)” value was 24888 ± 2473 cpm in series [4] (Table 2-1, sample 10 μg/mL); 24164 ± 2683 cpm in series [4] (Table 2-1, sample 50 μg/mL); 20574 ± 2746 cpm in series [4] (Table 2-1, sample 100 μg/mL).
